From patent publication US5235045A, “Non-azo naphthalimide dyes” (priority 1992, dated 1993)

What was measured:
[1] = test system: various individual protein preparations; experiment: Protein cross-linking with DiEd6Br and light (gel electrophoresis, general); format: biochemical
Text: Concomitant with the appearance of the heavier species with photoillumination with the decrease in intensity of electromigrated bands of the initially present protein.

[2] = test system: Human High Density Lipoprotein (HDL), Apoprotein I; experiment: Protein crosslinking with DiEd6Br: HDL; format: biochemical; settings: 25.0 μM, 400 J/cm^2
[3] = test system: Vesicular stomatitis Virus (Ogden strain) (VSV), G-protein; format: biochemical; settings: 10.0 μM, 460 J/cm^2
[4] = Tissue bonding of swine dura mater with DiEd6Br and light
Text: Bonding together of the overlapping surfaces of two strips of swine dura mater and of two thin slices of beef muscle with application of DiEd6Br in Cremophor EL as a carrier and irradiation with 420 # 5 nm light filtered from a xenon arc lamp were studied.
Strips approximately 3×0.5 cm in dimension were cut from freshly harvested swine cranial dura mater, washed with 70% ethanol/water and blotted to dryness with standard chemical filter paper. External faces of each member of two pairs of strips were coated with a stock solution of Cremophor EL saturated at room temperature with DiEd6Br (approximately 2.5 millimolar), overlapped 1 cm with long axes parallel, and clamped between two Pyrex glass slides with edges of the slide-tissue-slide sandwich sealed with Parafilm. One sample was irradiated with 420 # 5 nm light of 25 mW/cm^2 irradiance for […]. at room temperature to give a total light fluence of approximately 1800 J/cm^2. The companion sample was wrapped in aluminum foil for light shielding and placed alongside the irradiated sample for the duration of the experiment.
Following their respective irradiation or being held in the dark in similar temperature ambience, one end of a strip of each sample was clamped and from the other a Styrofoam container was hung by a clamp and fine suspension wires (weight of clamp plus container plus wires=33.3 gm). Weights (10 gm each) were added gently in a sequential fashion to give a total weight of 296.3 gm upon which the strip is separated at their interface within the overlapped region of the irradiated sample. Strips of the un-irradiated sample separated immediately at their interface under the 33.3 gm loading of the "weighing" container. […] Elongation was approximately 50% at shearing of the interface.

[5] = 2 G-protein units or 1 G-protein + 2 M-protein units

CCCCCCN1C(=O)c2cccc3c(NCCNC(=O)CCCCC(=O)NCCNc4c(Br)cc5c6c(cccc46)C(=O)N(CCCCCC)C5=O)c(Br)cc(c23)C1=O [Compound XLIV]
heavier molecular species in absence of light ([1]; no light): complete absence of these species
heavier molecular species ([1]; photoirradiation nominally 420 nm): formation of slower electromigrating, thus heavier, molecular species
Inferred Crosslinked Species ([2]; Cremophor EL): 8 Apopro-
Inferred Crosslinked Species, Gel mw ([2]; 8 Apoprotein I units): 141 kD
heavier bands [3]: many ill separated heavier bands merging together near
Inferred Crosslinked Species [3, 5]: 2 G-protein
Inferred Crosslinked Species, Gel mw [3, 5]: 130 kD
deformation after separation ([4]; irradiated): no plastic deformation
elongation at shearing of the interface ([4]; irradiated): approximately 50%
total weight at separation of strips ([4]; irradiated, approximately 1800 J/cm^2): 296.3 gm
loading at which strips separated immediately ([4]; un-irradiated): ≤ 33.3 gm
